From ChEMBL document CHEMBL5154776, “Discovery of Potent and Orally Bioavailable Platelet-Derived Growth Factor Receptor (PDGFR) Inhibitors for the Treatment of Osteosarcoma” (J Med Chem, 2022)
The source made the active and inactive calls.

Experiments:
HOS-TE85 [1] = experiment: Antitumor activity against human MNNG/HOS cells xenografted in BALB/c nude mouse assessed as reduction in tumor growth at 15 to 30 mg/kg/day, po dosed for 14 days; assay type: functional, organism-based; conditions: dose lower […], dose upper 30.0 mg/kg/day, time 14.0 day
[2] = target: T1, Platelet-derived growth factor receptor beta (Homo sapiens, UniProt P09619); experiment: Inhibition of PDGFRbeta phosphorylation in human MNNG/HOS cells incubated for 48 hrs by Western blot analysis; assay type: cell-based
T1 sequence (P09619 whole entry): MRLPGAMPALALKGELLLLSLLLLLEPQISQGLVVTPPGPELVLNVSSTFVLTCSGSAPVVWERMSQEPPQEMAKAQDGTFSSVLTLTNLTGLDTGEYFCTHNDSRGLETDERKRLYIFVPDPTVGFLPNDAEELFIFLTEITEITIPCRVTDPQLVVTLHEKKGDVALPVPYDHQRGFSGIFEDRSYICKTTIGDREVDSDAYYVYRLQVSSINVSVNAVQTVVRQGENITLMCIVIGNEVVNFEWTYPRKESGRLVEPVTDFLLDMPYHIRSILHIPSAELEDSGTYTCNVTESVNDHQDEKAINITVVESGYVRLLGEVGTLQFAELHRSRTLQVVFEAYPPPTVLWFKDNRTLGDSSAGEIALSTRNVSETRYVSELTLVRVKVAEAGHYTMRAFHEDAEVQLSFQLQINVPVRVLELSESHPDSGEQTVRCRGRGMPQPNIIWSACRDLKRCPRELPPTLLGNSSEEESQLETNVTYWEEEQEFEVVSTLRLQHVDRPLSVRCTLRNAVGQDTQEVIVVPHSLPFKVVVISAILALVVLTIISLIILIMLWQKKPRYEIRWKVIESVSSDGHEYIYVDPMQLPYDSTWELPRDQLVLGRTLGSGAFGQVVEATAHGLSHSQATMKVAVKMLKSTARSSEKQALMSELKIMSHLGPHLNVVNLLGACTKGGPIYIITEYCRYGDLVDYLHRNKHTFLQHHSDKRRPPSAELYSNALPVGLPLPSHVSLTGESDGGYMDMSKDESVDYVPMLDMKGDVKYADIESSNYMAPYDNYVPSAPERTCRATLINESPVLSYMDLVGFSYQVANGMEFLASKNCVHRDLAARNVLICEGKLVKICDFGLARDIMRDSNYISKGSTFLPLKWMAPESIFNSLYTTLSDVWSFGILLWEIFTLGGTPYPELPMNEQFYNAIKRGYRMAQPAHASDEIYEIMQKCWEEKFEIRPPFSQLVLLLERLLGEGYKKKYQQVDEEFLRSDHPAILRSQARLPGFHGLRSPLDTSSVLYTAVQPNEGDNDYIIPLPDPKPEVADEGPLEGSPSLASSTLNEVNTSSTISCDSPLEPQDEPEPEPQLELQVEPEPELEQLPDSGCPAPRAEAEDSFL

MG-63 [3] = experiment: Induction of cell cycle arrest in human MG-63 cells assessed as accumulation of cells at G0/G1 phase incubated for 48 hrs by propidium iodide staining based flow cytometry analysis; assay type: functional; conditions: dose 0.1-0.4 µM, DDE = dose-dependent effect
HOS-TE85 [4] = experiment: Induction of apoptosis in human MNNG/HOS cells at 0.4 uM after 48 hrs by Annexin V/PI staining based flow cytometric analysis; assay type: functional, cell-based
MG-63 [5] = experiment: Induction of apoptosis in human MG-63 cells at 0.4 uM after 48 hrs by Annexin V/PI staining based flow cytometric analysis; assay type: functional, cell-based
HOS-TE85 [6] = experiment: Inhibition of PDGF AA/BB-stimulated human MNNG/HOS cell proliferation measured after 48 hrs by MTT assay; assay type: functional, cell-based; conditions: dose 0.1-1.6 µM, DDE = dose-dependent effect
MG-63 [7] = experiment: Inhibition of PDGF AA/BB-stimulated human MG-63 cell proliferation measured after 48 hrs by MTT assay; assay type: functional, cell-based; conditions: dose 0.1-1.6 µM, DDE = dose-dependent effect
HOS-TE85 [8] = experiment: Induction of DNA damage in human MNNG/HOS cells assessed as tail DNA at 0.1 to 0.4 uM measured after 48 hrs by comet assay; assay type: functional, cell-based; conditions: dose 0.1-0.4 µM
[9] = target: T1, Platelet-derived growth factor receptor beta; experiment: Inhibition of PDGFRbeta-mediated downstream signalling in human MG-63 cells assessed as suppression of STAT3 phosphorylation at 0.1 uM measured after 48 hrs by western blot analysis; assay type: cell-based
[10] = target: T1, Platelet-derived growth factor receptor beta; experiment: Inhibition of PDGFRbeta-mediated downstream signalling in human MG-63 cells assessed as suppression of ERK phosphorylation at 0.1 uM measured after 48 hrs by western blot analysis; assay type: cell-based
[11] = target: T1, Platelet-derived growth factor receptor beta; experiment: Inhibition of PDGFRbeta-mediated downstream signalling in human MG-63 cells assessed as suppression of AKT phosphorylation at 0.1 uM measured after 48 hrs by western blot analysis; assay type: cell-based
[12] = target: T1, Platelet-derived growth factor receptor beta; experiment: Inhibition of PDGFRbeta-mediated downstream signalling in human MNNG/HOS cells assessed as suppression of ERK phosphorylation at 0.1 to 0.4 uM measured after 48 hrs by western blot analysis; assay type: cell-based; conditions: dose 0.1-0.4 µM
[13] = target: T1, Platelet-derived growth factor receptor beta; experiment: Inhibition of PDGFRbeta-mediated downstream signalling in human MNNG/HOS cells assessed as suppression of AKT phosphorylation at 0.1 to 0.4 uM measured after 48 hrs by western blot analysis; assay type: cell-based; conditions: dose 0.1-0.4 µM
HOS-TE85 [14] = experiment: Inhibition of cell migration in human MNNG/HOS cells assessed as reduction of cell mobility after 48 hrs by scratch-wound healing assay; assay type: functional, cell-based; conditions: dose 0.1-0.4 µM, DDE = dose-dependent effect
MG-63 [15] = experiment: Inhibition of cell migration in human MG-63 cells assessed as reduction of cell mobility after 48 hrs by scratch-wound healing assay; assay type: functional, cell-based; conditions: dose 0.1-0.4 µM, DDE = dose-dependent effect
HOS-TE85 [16] = experiment: Inhibition of cell adhesion in human MNNG/HOS cells at 0.1 to 0.4 uM measured after 48 hrs by crystal violet staining based analysis; assay type: functional; conditions: dose 0.1-0.4 µM
HOS-TE85 [17] = experiment: Inhibition of cell invasion in human MNNG/HOS cells at 0.1 to 0.4 uM measured after 48 hrs by crystal violet staining based transwell assay; assay type: functional; conditions: dose 0.1-0.4 µM
MG-63 [18] = experiment: Inhibition of cell invasion in human MG-63 cells at 0.1 to 0.4 uM measured after 48 hrs by crystal violet staining based transwell assay; assay type: functional; conditions: dose 0.1-0.4 µM
HOS-TE85 [19] = experiment: Inhibition of cell migration in human MNNG/HOS cells at 0.1 to 0.4 uM measured for 48 hrs scratch wound healing migration assay; assay type: functional, cell-based; conditions: dose 0.1-0.4 µM
MG-63 [20] = experiment: Inhibition of cell migration in human MG-63 cells at 0.1 to 0.4 uM measured for 48 hrs scratch wound healing migration assay; assay type: functional, cell-based; conditions: dose 0.1-0.4 µM
HOS-TE85 [21] = experiment: Inhibition of alpha tubulin expression in human MNNG/HOS cells at 0.1 to 0.4 uM measured after 48 hrs by western blot analysis; assay type: functional, cell-based; conditions: dose 0.1-0.4 µM
HOS-TE85 [22] = experiment: Antimigratory activity against human MNNG/HOS cells assessed as expression of FAK by measuring fluorescence at 0.1 to 0.4 uM upto 48 hrs by DAPI staining based immunofluorescence microscopic analysis; assay type: functional, cell-based; conditions: dose 0.1-0.4 µM
HOS-TE85 [23] = experiment: Antiinvasive activity against human MNNG/HOS cells assessed as expression of FAK by measuring fluorescence at 0.1 to 0.4 uM upto 48 hrs by DAPI staining based immunofluorescence microscopic analysis; assay type: functional, cell-based; conditions: dose 0.1-0.4 µM
MG-63 [24] = experiment: Inhibition of alpha tubulin expression in human MG-63 cells at 0.1 to 0.4 uM measured after 48 hrs by western blot analysis; assay type: functional, cell-based; conditions: dose 0.1-0.4 µM
MG-63 [25] = experiment: Antimigratory activity against human MG-63 cells assessed as reduction in cell spreading area upto 48 hrs by DAPI staining based immunofluorescence microscopic analysis; assay type: functional; conditions: dose 0.1-0.4 µM, DDE = dose-dependent effect
MG-63 [26] = experiment: Antiinvasive activity against human MG-63 cells assessed as reduction in cell spreading area upto 48 hrs by DAPI staining based immunofluorescence microscopic analysis; assay type: functional; conditions: dose 0.1-0.4 µM, DDE = dose-dependent effect
HOS-TE85 [27] = experiment: Inhibition of FAK expression in human MNNG/HOS cells incubated for 48 hrs by Western blot analysis; assay type: functional, cell-based; conditions: dose 0.1-0.4 µM, DDE = dose-dependent effect
MG-63 [28] = experiment: Inhibition of FAK expression in human MG-63 cells incubated for 48 hrs by Western blot analysis; assay type: functional, cell-based; conditions: dose 0.1-0.4 µM, DDE = dose-dependent effect
[29] = target: Focal adhesion kinase 1 (Homo sapiens) (UniProt Q05397); experiment: Inhibition of FAK phosphorylation in human MNNG/HOS cells incubated for 48 hrs by Western blot analysis; assay type: cell-based; conditions: dose 0.1-0.4 µM, DDE = dose-dependent effect
Sequence of Focal adhesion kinase 1 (Homo sapiens) (Q05397 2-1052 limits assumed): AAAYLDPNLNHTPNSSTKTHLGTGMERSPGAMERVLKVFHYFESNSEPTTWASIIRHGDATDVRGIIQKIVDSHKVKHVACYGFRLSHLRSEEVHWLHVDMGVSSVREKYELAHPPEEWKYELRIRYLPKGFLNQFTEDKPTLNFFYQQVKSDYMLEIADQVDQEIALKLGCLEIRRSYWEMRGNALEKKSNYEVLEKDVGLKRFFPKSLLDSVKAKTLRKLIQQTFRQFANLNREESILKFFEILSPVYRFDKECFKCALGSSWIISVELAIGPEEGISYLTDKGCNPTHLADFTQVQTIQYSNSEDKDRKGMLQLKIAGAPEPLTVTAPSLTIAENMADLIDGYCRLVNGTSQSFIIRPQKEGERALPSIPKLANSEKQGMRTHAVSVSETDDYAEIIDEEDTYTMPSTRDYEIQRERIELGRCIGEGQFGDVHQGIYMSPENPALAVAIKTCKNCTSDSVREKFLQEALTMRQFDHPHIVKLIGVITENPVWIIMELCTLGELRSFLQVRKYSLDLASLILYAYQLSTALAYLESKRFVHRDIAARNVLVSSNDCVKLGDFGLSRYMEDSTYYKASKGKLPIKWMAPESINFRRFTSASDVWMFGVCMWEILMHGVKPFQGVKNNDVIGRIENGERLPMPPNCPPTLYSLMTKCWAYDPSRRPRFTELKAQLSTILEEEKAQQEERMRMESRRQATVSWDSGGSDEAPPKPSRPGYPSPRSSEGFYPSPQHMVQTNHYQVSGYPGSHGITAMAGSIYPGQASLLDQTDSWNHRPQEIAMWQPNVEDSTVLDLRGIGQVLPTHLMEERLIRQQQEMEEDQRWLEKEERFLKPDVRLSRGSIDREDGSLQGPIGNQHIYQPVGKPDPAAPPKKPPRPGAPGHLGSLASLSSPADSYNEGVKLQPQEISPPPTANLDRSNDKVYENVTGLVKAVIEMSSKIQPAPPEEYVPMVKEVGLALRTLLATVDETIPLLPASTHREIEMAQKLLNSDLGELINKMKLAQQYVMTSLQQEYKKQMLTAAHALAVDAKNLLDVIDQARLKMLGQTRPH

[30] = target: Focal adhesion kinase 1 (Homo sapiens) (UniProt Q05397); experiment: Inhibition of FAK phosphorylation in human MG-63 cells incubated for 48 hrs by Western blot analysis; assay type: cell-based; conditions: dose 0.1-0.4 µM, DDE = dose-dependent effect
[31] = target: Platelet-derived growth factor receptor alpha (Homo sapiens, UniProt P16234); experiment: Binding affinity to PDGFRalpha (unknown origin)
Sequence of Platelet-derived growth factor receptor alpha (P16234 whole entry): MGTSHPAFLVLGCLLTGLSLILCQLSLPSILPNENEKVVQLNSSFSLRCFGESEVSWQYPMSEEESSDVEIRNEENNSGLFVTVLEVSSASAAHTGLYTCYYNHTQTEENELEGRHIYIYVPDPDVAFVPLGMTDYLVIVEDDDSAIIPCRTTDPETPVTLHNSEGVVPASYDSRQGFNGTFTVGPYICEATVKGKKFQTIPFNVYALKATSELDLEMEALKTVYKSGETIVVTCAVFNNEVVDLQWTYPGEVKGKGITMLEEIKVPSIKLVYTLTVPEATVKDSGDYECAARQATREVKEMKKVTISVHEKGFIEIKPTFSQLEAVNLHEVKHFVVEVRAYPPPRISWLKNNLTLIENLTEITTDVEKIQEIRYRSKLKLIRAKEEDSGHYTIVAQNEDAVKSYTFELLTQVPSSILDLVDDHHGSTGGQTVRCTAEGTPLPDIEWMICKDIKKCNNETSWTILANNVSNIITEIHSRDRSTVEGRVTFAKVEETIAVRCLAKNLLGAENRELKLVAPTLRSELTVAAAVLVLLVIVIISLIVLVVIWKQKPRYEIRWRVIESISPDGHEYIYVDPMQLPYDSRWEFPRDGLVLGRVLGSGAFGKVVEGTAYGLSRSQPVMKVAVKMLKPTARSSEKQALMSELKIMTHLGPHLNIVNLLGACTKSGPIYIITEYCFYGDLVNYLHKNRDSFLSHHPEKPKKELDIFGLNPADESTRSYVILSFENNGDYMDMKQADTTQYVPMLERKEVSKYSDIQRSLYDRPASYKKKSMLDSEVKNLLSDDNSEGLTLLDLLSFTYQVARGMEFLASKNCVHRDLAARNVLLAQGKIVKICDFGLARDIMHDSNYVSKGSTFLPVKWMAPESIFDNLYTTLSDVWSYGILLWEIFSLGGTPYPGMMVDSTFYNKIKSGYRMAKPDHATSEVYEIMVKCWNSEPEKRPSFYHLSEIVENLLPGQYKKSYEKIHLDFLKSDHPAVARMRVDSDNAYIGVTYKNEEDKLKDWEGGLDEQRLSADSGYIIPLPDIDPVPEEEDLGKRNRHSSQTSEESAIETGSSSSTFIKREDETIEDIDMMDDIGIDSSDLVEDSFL

MG-63 [32] = experiment: Inhibition of PDGFRbeta expression in human MG-63 cells incubated for 48 hrs by Western blot analysis; assay type: functional, cell-based
[33] = target: T1, Platelet-derived growth factor receptor beta; experiment: Inhibition of PDGFRbeta phosphorylation in human MG-63 cells incubated for 48 hrs by Western blot analysis; assay type: cell-based
HOS-TE85 [34] = experiment: Antiproliferative activity against human MNNG/HOS cells xenografted in BALB/c nude mouse assessed as suppression of tumor growth at 15 to 30 mg/kg/day, po dosed for 14 days by immunohistochemistry analysis; assay type: functional, organism-based; conditions: dose lower […], dose upper 30.0 mg/kg/day, time 14.0 day
HOS-TE85 [35] = experiment: Induction of apoptosis in human MNNG/HOS cells xenografted in BALB/c nude mouse at 15 to 30 mg/kg/day, po dosed for 14 days by immunohistochemistry analysis; assay type: functional, organism-based; conditions: dose lower […], dose upper 30.0 mg/kg/day, time 14.0 day
HOS-TE85 [36] = experiment: In vivo inhibition of PDGFRbeta-mediated downstream signalling in human MNNG/HOS cells xenografted in BALB/c nude mouse assessed as phosphorylation of STAT3 in tumor tissue at 15 to 30 mg/kg/day, po for 14 days; assay type: functional, organism-based; conditions: dose lower […], dose upper 30.0 mg/kg/day, time 14.0 day
HOS-TE85 [37] = experiment: In vivo inhibition of PDGFRbeta-mediated downstream signalling in human MNNG/HOS cells xenografted in BALB/c nude mouse assessed as phosphorylation of AKT in tumor tissue at 15 to 30 mg/kg/day, po for 14 days; assay type: functional, organism-based; conditions: dose lower […], dose upper 30.0 mg/kg/day, time 14.0 day
HOS-TE85 [38] = experiment: Inhibition of colony formation in human MNNG/HOS cells at 0.2 uM by crystal violet staining based analysis; assay type: functional, cell-based
[39] = target: T1, Platelet-derived growth factor receptor beta; experiment: Inhibition of PDGFRbeta in PDGF AA/BB stimulated human MG-63 cells assessed as reduction in fluorescence intensity measured after 48 hrs by DAPI staining based immunofluorescence analysis; assay type: cell-based; conditions: dose 0.1-0.4 µM, DDE = dose-dependent effect

CCN1CCN(c2ccc(Nc3ncc(C)c(Nc4ccc5cn[nH]c5c4)n3)cc2OC)CC1
active: Activity (HOS-TE85 [1]) | inhibition [2] | Activity (MG-63 [3]) Dde | Activity (HOS-TE85 [4]) | Activity (MG-63 [5]) | inhibition (HOS-TE85 [6]) Dde | inhibition (MG-63 [7]) Dde | Activity (HOS-TE85 [8]) | inhibition [9] | inhibition [10] | inhibition [11] | inhibition [12] | inhibition [13] | inhibition (HOS-TE85 [14]) Dde | inhibition (MG-63 [15]) Dde | inhibition (HOS-TE85 [16]) | inhibition (HOS-TE85 [17]) | inhibition (MG-63 [18]) | inhibition (HOS-TE85 [19]) | inhibition (MG-63 [20]) | inhibition (HOS-TE85 [21]) | Activity (HOS-TE85 [22]) | Activity (HOS-TE85 [23]) | inhibition (MG-63 [24]) | Activity (MG-63 [25]) Dde | Activity (MG-63 [26]) Dde | inhibition (HOS-TE85 [27]) Dde | inhibition (MG-63 [28]) Dde | inhibition [29] Dde | inhibition [30] Dde | Activity [31] | inhibition (MG-63 [32]) | inhibition [33] | Activity (HOS-TE85 [34]) | Activity (HOS-TE85 [35]) | inhibition (HOS-TE85 [36]) | inhibition (HOS-TE85 [37]) | inhibition (HOS-TE85 [38]) | inhibition [39] Dde
